{"source": "patent US6046231A", "about": "“Use of 4'-bromoflavone in a cancer chemopreventative composition and method” (The Board of Trustees of the University of Illinois, priority 1999, dated 2000)", "key": {"[1]": {"tested_on": "HepG2 cells (B[α]P-DNA adducts)", "experiment": "Binding of metabolically activated [3H]B[α]P to DNA of cultured HepG2 cells", "format": "cell-based", "settings": "Homo sapiens, read-out: IC50, formation of B[α]P-DNA adducts, HepG2", "protocol": "Effect of 4'-BF on the Binding of Metabolically Activated [^3 H]B[α]P to DNA of Cultured Cells. HepG2 cells or MCF-7 cells were plated at a density of 1×10^6 cells/dish in 6 cm Petri dishes and allowed to incubate for 18 hours. Fresh media containing test samples were added to the cells 2 hours prior to the addition of 1 μM [^3 H]B[α]P (10 Ci/mmol) The test compound and tritiated carcinogen then were incubated for 6 hours. Following incubation, genomic DNA was extracted by the method described by Sharma et al., with minor modifications. Briefly, the cells were washed three times with PBS and harvested by incubation with 0.5 ml of proteinase K (100 μg/ml) in 0.2 M Tris-0.1 M EDTA (pH 8.5) for 10 min at 37° C. The cells were gently scraped from the dishes, transferred to 50 μl of 10% SDS solution, and incubated for 3 hours at 55° C. […] An aliquot of harvested DNA was used for measuring the relative absorbencies at 260 and 280 nm (A2360 nm/A2380 nm=1.7-1.9), and the DNA content was determined by absorbance at 260 nm (1 A2360 nm unit=50 μg). The remaining sample was used for the determination of radioactivity. All experiments were performed in triplicate; percentage inhibition of carcinogen-DNA binding mediated by test samples was calculated as follows: % inhibition=[1-(dpm per μg DNA test cells/dpm per μg DNA control cells)]×100."}, "GST Ya (α class)": {"tested_on": "GST Ya (α class)", "experiment": "Western blot of GST Ya (α-type) expression in H4IIE cells", "format": "cell-based, rat", "settings": "for GST Ya (α) induction: H4IIE cells", "protocol": "Western Blot Analysis Glutathione S-transferase Expression. Cultured H4IIE rat hepatoma cells were treated with test agent with various concentrations or various time points. […] Cells were harvested using SDS lysis buffer (20 mM Tris-Cl, pH 6.8, containing 0.4% SDS (w/v), 4% glycerol, 0.24 M β-mercaptoethanol, and 0.5% bromphenol) and the lysates were boiled for 5 minutes, then stored at -20° C. An aliquot of lysate was used for protein determination using a bicichoninic acid protein assay kit with BSA as a standard. Equivalent amounts of protein were electrophoresed by SDS-PAGE on precast 12.5% Tris-glycine acrylamide gels (Novex, San Diego, Calif.), then transferred to polyvinylidene difluoride (PDVF) membranes. Nonspecific binding sites were blocked with 10% nonfat dry milk and blotting was performed with goat polyclonal antirat GSTYa (α class) IgG or antirat, GSTYb (μ class) IgG and analyzed by alkaline phosphatase-conjugated antigoat IgG secondary antibody (Oxford Biomed Research, Inc.) and quantified using an AP 20 Alkaline Phosphatase Kit detection system (Oxford Biomed Research, Inc.).\nInduction of Expression of Glutathione S-transferase Ya (α-type) and Yb (μ-type) in Cell Cultures. […] To date, the superfamily of mammalian cytosolic GST isozymes has been defined genetically to consist of four classes; α, μ, π, and θ, which differ in tissue-specificexpression and distribution, as well as substrate specificity. […] Cultured H4IIE cells were treated either with 10 μM of 4'-BF (FIG. 7B) or sulforaphane for 0, 2, 4, 8, 16, 24, and 48 hours for a time-dependent study, or with 0.16, 0.8, 4, 10, 20, and 50 μM of 4'-BF (FIG. 7A) or sulforaphane for 24 hr for a dose-dependent study (FIG. 7A). The expressions of two major detoxification isoforms of GSTs (GST Ya: α-type, and GST Yb: μ-type) mediated by 4'-BF or sulforaphane were investigated in H4EII rat hepatoma cells using Western blotting technique."}, "H4IIE rat hepatoma cells": {"tested_on": "H4IIE rat hepatoma cells", "experiment": "Toxicity in H4IIE rat hepatoma cells", "format": "cell-based"}, "[2]": {"tested_on": "QR ARE-CAT construct, HepG2 cells", "experiment": "CAT expression in HepG2 cells transfected with QR ARE-CAT", "format": "cell-based, human cells; rat QR gene", "settings": "10 μM, 48 h; p<0.0001; listed as 4'-BF", "protocol": "Transcient Transfection Gene Expression Assay. Cultured HepG2 human hepatoma cells were transfected with three plasmid constructs (PDTD-1697CAT, XRE-CAT, ARE-CAT) containing various portions of the 5'-region of the QR gene fused to the CAT gene using the calcium phosphate precipitation method (J. Sambrook et al., Molecular cloning: A Laboratory Handbook, Ed. Chris Nolan, CHS Laboratory Press, 1989). After 4 hours of transfection, the cells were treated with 10% glycerol for 3 minutes and rinsed with PBS and switched to MEM, containing 100 units/ml penicillin G sodium, 100 units/ml streptomycin sulfate, nonessential amino acids, and 1 mM sodium pyruvate (Life Technologies Inc.) supplemented with 10% fetal bovine serum for 12-16 hours recovery. Then, test agents were added to the cells. After 48 hours of treatment with the test agents, cells were harvested with lysis buffer (Boehringer Mannheim Biochemical) and CAT protein expressions were assessed using a CAT ELISA kit (Boehringer Mannheim Biochemical). CAT enzyme expression was normalized for the protein content of each sample. All data were expressed as mean +/- SD. Means were compared using Student's t test with n=4.\nThis was further investigated in transient transfection experiments wherein human hepatoma cells were transfected with DNA constructs containing various portions of the 5' upstream promoter region of the QR gene linked to the CAT reporter gene by using the calcium phosphate precipitation method. Construct pDTD-1097CAT contains elements of the rat QR gene connected to the CAT construct gene. […]\nIn particular, FIG. 1 illustrates quantitation of CAT expression in HepG2 cells transfected with QR-CAT constructs. […] CAT expression (ng CAT/mg protein) was determined using a CAT ELISA, and the ratio of CAT expression between treated and control cells was calculated (ratio=treated/control)."}, "glutathione (GSH)": {"tested_on": "glutathione (GSH)", "experiment": "Induction of glutathione (GSH) in mouse liver and mammary glands (Table 3)", "format": "in vivo"}}, "data": [{"smiles": "O=c1cc(-c2ccc(Br)cc2)oc2ccccc12", "note": "[4'-Bromoflavone]", "values": [{"measurement": "IC50", "setting": "[1]", "result": "~3.1", "unit": "µM"}, {"measurement": "maximum induction time, GST Ya", "setting": "GST Ya (α class); 10 μM, 0-48 h", "result": "16 to 24", "unit": "h"}, {"measurement": "maximum induction concentration, GST Ya", "setting": "GST Ya (α class); 0.16-50 μM, 24 h", "result": "10 to 20", "unit": "µM"}, {"measurement": "GST Ya (α) induction", "setting": "GST Ya (α class)", "result": "effectively induced"}, {"measurement": "GST Ya (α) induction", "setting": "GST Ya (α class); listed as 4'-BF", "result": "induced by 4'-BF in a time, dose-dependent manner"}, {"measurement": "toxicity in H4IIE cells", "setting": "H4IIE rat hepatoma cells", "result": "no observed toxicity"}, {"measurement": "CAT expression, QR ARE-CAT", "setting": "[2]", "result": "significantly (P<0.0001, students t test with n=4) induced"}, {"measurement": "GSH (Treated/Control), Liver", "setting": "glutathione (GSH); liver", "result": 2.11}, {"measurement": "GSH (Treated/Control), Mammary Gland", "setting": "glutathione (GSH); mammary gland", "result": 1.77}]}]}
